Assay: Pharmacokinetic properties from the literature
Assay type: in vivo
Conditions: Minimal PBPK model; Derived using WinNonLin, ref Huang et al. (1986)
Text: Compound-specific physicochemical properties (e.g., pKa, fraction unbound in plasma, etc.) are detailed in Table S1B and were used to parameterize each model.

Vss: 0.345 L/kg
Compound: CC(=O)N1CCN(c2ccc(OCC3COC(Cn4ccnc4)(c4ccc(Cl)cc4Cl)O3)cc2)CC1 (stereo not shown) [Ketoconazole]
